Laboratory results as given in patent US20120129811A1, “TRICYCLIC INHIBITORS OF PRO-MATRIX METALLOPROTEINASE ACTIVATION” (priority 2010, published 2012).
Structures can show the parent of a compound that is named as a salt.

Experiments:
[1] = biological target: T1, proMMP9(20-445;ΔFnII) (SEQ ID NO:6) (Homo sapiens, UniProt P14780, DEL216-390); test: ThermoFluor binding assay with proMMP9(20-445;ΔFnII)
T1 construct: start methionine (N); made in house; host or cells: E. coli BL21(DE3) RIL
T1 sequence (P14780 with tags, fused parts or gaps DEL216-390): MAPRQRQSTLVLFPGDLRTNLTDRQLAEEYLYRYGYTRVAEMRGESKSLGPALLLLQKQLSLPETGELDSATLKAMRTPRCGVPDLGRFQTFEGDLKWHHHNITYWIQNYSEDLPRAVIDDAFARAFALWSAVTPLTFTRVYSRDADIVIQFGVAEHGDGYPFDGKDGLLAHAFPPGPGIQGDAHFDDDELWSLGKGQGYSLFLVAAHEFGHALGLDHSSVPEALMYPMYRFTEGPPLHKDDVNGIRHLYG
Summary of the method: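 Protein thermal stability was measured with 2.8 μM proMMP9(20-445;ΔFnII) and 50 μM 1,8-ANS in 50 mM HEPES pH 7.0, 100 mM NaCl, 0.001% Tween-20, 2.5 mM MgCl2, 300 μM CaCl2, across serial compound dilutions. Samples were heated 40–90° C at 1° C/min with fluorescence read at 500 nm. Tm was fitted, and binding was derived from thermodynamic parameters obtained by DSC and ThermoFluor.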

[2] = biological target: T2, proMMP9(67-444;ΔFnII) (SEQ ID NO:5) (Homo sapiens, UniProt P14780, DEL216-390); test: ThermoFluor binding assay with proMMP9(67-444;ΔFnII)
T2 construct: start methionine (N); made in house; host or cells: E. coli BL21(DE3) RIL
T2 sequence (P14780 with tags, fused parts or gaps DEL216-390): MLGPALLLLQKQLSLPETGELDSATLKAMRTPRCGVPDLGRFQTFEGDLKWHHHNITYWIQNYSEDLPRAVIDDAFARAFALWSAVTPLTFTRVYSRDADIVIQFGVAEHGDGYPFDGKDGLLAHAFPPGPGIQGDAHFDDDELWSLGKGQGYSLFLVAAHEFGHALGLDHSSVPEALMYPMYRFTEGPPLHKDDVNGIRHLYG
Summary of the method: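 Thermal shift of 3.5 μM proMMP9(67-444;ΔFnII), desalted beforehand, with 50 μM 1,8-ANS in 50 mM HEPES pH 7.0, 100 mM NaCl, 2.5 mM MgCl2, 300 μM CaCl2, 0.001% Tween-20. Heated 40–90 °C at 1 °C/min, fluorescence read at 500 nm; binding fitted from Tm shifts using DSC- and ThermoFluor-derived unfolding parameters.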

[3] = biological target: T3, proMMP13(1-268) (SEQ ID NO:7) (Homo sapiens, UniProt P45452); test: ThermoFluor binding assay with proMMP13(1-268)
T3 construct: 6xHis (C); made in house; host or cells: HEK293 (transient, secreted)
Protocol: The ThermoFluor® (TF) assay is a 384-well plate-based binding assay that measures thermal stability of proteins (Biomol Screen 2001, 6, 429-40; Biochemistry 2005, 44, 5258-66). The experiments were carried out using instruments available from Johnson & Johnson Pharmaceutical Research & Development, LLC. TF dye used in all experiments was […] (1,8-ANS) (Invitrogen: A-47).
Compounds were arranged in a pre-dispensed plate (Greiner Bio-one: 781280), wherein compounds were serially diluted in 100% DMSO across 11 columns within a series. Columns 12 and 24 were used as DMSO reference and contained no compound. For multiple compound concentration-response experiments, the compound aliquots (50 nL) were robotically predispensed directly into black 384-well polypropylene PCR microplates (Abgene: TF-0384/k) using a Cartesian Hummingbird liquid handler (DigiLab, Holliston, Mass.). Following compound dispense, protein and dye solutions were added to achieve the final assay volume of 3 μL. The assay solutions were overlayed with 1 μL of silicone oil (Fluka, type DC 200: 85411) to prevent evaporation.
Assay plates were robotically loaded onto a thermostatically controlled PCR-type thermal block and then heated from 40 to 90° C. at a ramp-rate of 1° C./min for all experiments. Fluorescence was measured by continuous illumination with UV light (Hamamatsu LC6) supplied via fiber optics and filtered through a band-pass filter (380-400 nm; >60D cutoff). Fluorescence emission of the entire 384-well plate was detected by measuring light intensity using a CCD camera (Sensys, Roper Scientific) filtered to detect 500±25 nm, resulting in simultaneous and independent readings of all 384 wells. A single image with 20-sec exposure time was collected at each temperature, and the sum of the pixel intensity in a given area of the assay plate was recorded vs temperature and fit to standard equations to yield the Tm (J Biomol Screen 2001, 6, 429-40).
Thermodynamic parameters necessary for fitting compound binding for each proMMP were estimated by differential scanning calorimetry (DSC) and from ThermoFluor® data. The heat capacity of unfolding for each protein was estimated from the molecular weight and from ThermoFluor® dosing data.
ThermoFluor® with proMMP13(1-268) (SEQ ID NO: 7)
The proMMP13(1-268) (SEQ ID NO:7) protein sample preparations included a desalting buffer exchange step via a PD-10 gravity column (GE Healthcare). The desalting buffer exchange was performed prior to diluting the protein to the final assay concentration of 3.5 μM. The concentration of proMMP13(1-268) (SEQ ID NO:7) was estimated spectrophotometrically based on a calculated extinction coefficient of ε280=37000 M^−1 cm^−1, a calculated molecular weight of 30.8 kDa, and calculated pI of 5.33. ThermoFluor® reference conditions were defined as follows: 100 μg/mL proMMP13(1-268) (SEQ ID NO:7), 25 μM 1,8-ANS, pH 7.0 Buffer (50 mM HEPES pH 7.0, 100 mM NaCl, 0.001% Tween-20, 2.5 mM MgCl2, 300 μM CaCl2). The thermodynamic parameters for proMMP13(1-268) (SEQ ID NO:7) are as follows: Tm (° C.)=67 (+/−0.1), ΔUH(Tm)) (cal mol^−1)=107000(+/−5000), ΔUSTm (cal mol^−1 K^−1)=318, ΔUCp (cal mol^−1 K^−1)=2600.

[4] = biological target: T4, full-length proMMP9(1-707) activation by catalytic MMP3 (Homo sapiens, UniProt P14780, R574P); test: proMMP9/MMP3 P126 Activation Assay; type: biochemical
T4 construct: made in house; host or cells: proMMP9: HEK293 (secreted); MMP3: E. coli
T4 sequence (P14780 20-707 R574P): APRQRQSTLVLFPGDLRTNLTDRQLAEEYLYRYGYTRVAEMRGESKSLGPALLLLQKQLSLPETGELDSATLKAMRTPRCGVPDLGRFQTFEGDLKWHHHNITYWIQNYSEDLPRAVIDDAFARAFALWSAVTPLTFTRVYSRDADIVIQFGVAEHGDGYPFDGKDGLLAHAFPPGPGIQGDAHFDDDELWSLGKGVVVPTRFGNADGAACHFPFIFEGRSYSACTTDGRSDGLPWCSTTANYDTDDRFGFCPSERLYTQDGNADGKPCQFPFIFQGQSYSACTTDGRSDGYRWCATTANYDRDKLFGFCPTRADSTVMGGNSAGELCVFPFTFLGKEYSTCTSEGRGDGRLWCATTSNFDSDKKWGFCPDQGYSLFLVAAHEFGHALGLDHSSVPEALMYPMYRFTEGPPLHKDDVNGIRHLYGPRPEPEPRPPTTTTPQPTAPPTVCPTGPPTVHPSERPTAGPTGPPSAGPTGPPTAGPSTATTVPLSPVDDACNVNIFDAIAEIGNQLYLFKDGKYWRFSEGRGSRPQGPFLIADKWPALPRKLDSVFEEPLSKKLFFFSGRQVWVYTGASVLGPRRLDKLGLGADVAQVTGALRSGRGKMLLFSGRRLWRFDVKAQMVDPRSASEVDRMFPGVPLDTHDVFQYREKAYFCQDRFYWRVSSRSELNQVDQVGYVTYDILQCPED
Protocol: proMMP9/MMP3 P126 Activation Assay
The reaction volume was 50 μL. […] Reactivity of residual MMP3 towards P-126 substrate was minimal under these conditions.

| Compound | Kd [1] | Kd [2] | Kd [3] | IC50 [4] |
| --- | --- | --- | --- | --- |
| Cc1nc2ccc3sc(Nc4cc(C(N)=O)ccc4OC(C)C)nc3c2s1 [Example 13, 4-Isopropoxy-3-(2-methyl-benzo[1,2-d;3,4-d′]bisthiazol-7-ylamino)-benzamide.TFA] | 230 nM | 390 nM | 2200 nM | 420 nM |
| CC(C)Oc1ccc(C(N)=O)cc1Nc1nc2c(ccc3nc(C(=O)N4CCN(C)CC4)[nH]c32)s1 [Example 26, 4-Isopropoxy-3-[7-(4-methyl-piperazine-1-carbonyl)-8H imidazo[4′,5′:3,4]benzo[2,1-d]thiazol-2-ylamino]-benzamide.HCl] | 850 nM | 700 nM | 6100 nM | 710 nM |
| CCOc1ccccc1Nc1nc2c(ccc3c2ncn3C)s1 [Example 37, (2-Ethoxy-phenyl)-(6-methyl-6H-imidazo[4′,5′:3,4]benzo[2,1-d]thiazol-2-yl)-amine.HCl] | 2300 nM | 360 nM | 5900 nM | 310 nM |
| Cc1nc2c(ccc3sc(Nc4cc(C(N)=O)ccc4OC(C)C)nc32)[nH]1 [Example 19, 4-Isopropoxy-3-(7-methyl-6H-imidazo[4′,5′:3,4]benzo[2,1-d]thiazol-2-ylamino)-benzamide.HCl] | 460 nM | 380 nM | 2200 nM | 350 nM |
| COc1c(Nc2nc3c(ccc4c3ncn4C)s2)cc(C(N)=O)c(F)c1F [Example 44, 2,3-Difluoro-4-methoxy-5-(6-methyl-6H-imidazo[4′,5′:3,4]-benzo[2,1-d]thiazol-2-ylamino)-benzamide.HCl] | 25000 nM | 6200 nM | 9900 nM | 3800 nM |
| CCS(=O)(=O)c1ccc(OC)c(Nc2nc3c(ccc4c3ncn4C)s2)c1 [Example 60, (5-Ethanesulfonyl-2-methoxy-phenyl)-(6-methyl-6H-imidazo[4′,5′:3,4]-benzo[2,1-d]thiazol-2-yl)-amine.HCl] | 2800 nM | 970 nM | 1500 nM | 340 nM |
| COc1ccc(Cl)cc1Nc1nc2c(ccc3c2ncn3C)s1 [Example 40, (5-Chloro-2-methoxy-phenyl)-(6-methyl-6H-imidazo[4′,5′:3,4]benzo[2,1-d]thiazol-2-yl)-amine.HCl] | 830 nM | 100 nM | 1600 nM | 170 nM |
| COc1ccccc1Nc1nc2c(ccc3sc(N)nc32)s1 [Example 1, N^7-(2-Methoxy-phenyl)-benzo[2,1-d;3,4-d′]-bisthiazole-2,7-<diamine.TFA] | 3600 nM | 810 nM | 7000 nM | 2800 nM |
| COc1ccc(S(N)(=O)=O)cc1Nc1nc2c(ccc3c2ncn3C)s1 [Example 54, 4-Methoxy-3-(6-methyl-6H-imidazo[4′,5′:3,4]benzo[2,1-d]thiazol-2-ylamino)-benzenesulfonamide.HCl] | 1600 nM | 1100 nM | 11000 nM | 240 nM |
| COC(=O)c1ccc(OC)c(Nc2nc3c(ccc4c3ncn4C)s2)c1 [Example 61, 4-Methoxy-3-(6-methyl-6H-imidazo[4′,5′:3,4]benzo[2,1-d]thiazol-2-ylamino)-benzoic acid methyl ester.HCl] | 3200 nM | 860 nM | 2100 nM | 650 nM |
| Cc1nc2c3nc(Nc4cc(C(N)=O)ccc4OC(C)C)sc3ccc2n1C [Example 27, 3-(6,7-Dimethyl-6H-imidazo[4′,5′:3,4]benzo[2,1-d]thiazol-2-ylamino)-4-isopropoxy-benzamide.HCl] | 130 nM | 39 nM | 530 nM | 58 nM |
| Cn1cnc2c3nc(Nc4ccccc4OCC(F)(F)F)sc3ccc21 [Example 43, (6-Methyl-6H-imidazo[4′,5′:3,4]-benzo[2,1-d]thiazol-2-yl)-[2-(2,2,2-trifluoro-ethoxy)-phenyl]-amine.HCl] | 17000 nM | 2800 nM | > 95000 nM | 2500 nM |
| COc1ccc(OC)c(Nc2nc3c(ccc4c3ncn4C)s2)c1 [Example 42, (2,5-Dimethoxy-phenyl)-(6-methyl-6H-imidazo[4′,5′:3,4]-benzo[2,1-d]thiazol-2-yl)-amine.HCl] | 1900 nM | 370 nM | 3400 nM | 350 nM |
| COc1ccccc1Nc1nc2c(ccc3[nH]c(N)nc32)s1 [Example 6, N^2-(2-Methoxy-phenyl)-6H-imidazo[4′,5′:3,4]benzo[2,1-d]thiazole-2,7-diamine] | 2400 nM | 290 nM | 11000 nM | 660 nM |
| CC(=O)Nc1nc2c(ccc3sc(Nc4cc(C(N)=O)ccc4OC(C)C)nc32)[nH]1 [Example 18, 3-(7-Acetylamino-6H-imidazo[4′,5′:3,4]-benzo[2,1-d]thiazol-2-ylamino)-4-isopropoxy-benzamide.HCl] | 880 nM | 550 nM | 3400 nM | 630 nM |
| CC(C)Oc1ccc(C(N)=O)cc1Nc1nc2c(s1)CCc1cnccc1-2 [Example 115, 3-(4,5-Dihydro-thiazolo[4,5-f]isoquinolin-2-ylamino)-4-isopropoxy-benzamide.TFA] | 3000 nM | 25000 nM | 14000 nM | 1600 nM |
| CCCn1c(C)nc2c3nc(Nc4cc(C(N)=O)ccc4OC(C)C)sc3ccc21 [Example 36, 4-Isopropoxy-3-(7-methyl-6-propyl-6H-imidazo[4′,5′:3,4]benzo[2,1-d]thiazol-2-ylamino)-benzamide.HCl] | 170 nM | 710 nM | 2000 nM | 300 nM |
| CC(C)Oc1ccc(C(N)=O)cc1Nc1nc2c(s1)CCc1ccncc1-2 [Example 116, 3-(4,5-Dihydro-thiazolo[5,4-h]isoquinolin-2-ylamino)-4-isopropoxy-benzamide.TFA] | 1800 nM | 7300 nM | 8700 nM | 980 nM |
